Measurements taken from ChEMBL document CHEMBL1201862, “PubChem BioAssay data set” (2004).
Activity calls are given as the source filed them.

What was measured:
[1] = human group III sPLA2 inhibitors, dose response, biochemical, QFRET, IC50 (AID 743457);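 further: green fluorescence rise as the enzyme cleaves BODIPY PC-A2 in liposomes; potency for inhibition of the enzyme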
[2] = Luminescence-based cell-based high throughput dose response assay to identify activators of the DAF-12 from the parasite S. stercoralis (ssDAF-12).; assay type: functional
[3] = molecular target: T1, Oxysterols receptor LXR-beta (Homo sapiens, UniProt P55055); assay: LXR agonists, Gal4 luciferase reporter, dose response, counter-screen for ssDAF-12 agonist project, cell-based, luminescence, HEK293, S. stercoralis campaign (AID 720737); assay type: functional; settings: read-out: IC50 (the source's name)
T1 sequence (P55055 whole entry): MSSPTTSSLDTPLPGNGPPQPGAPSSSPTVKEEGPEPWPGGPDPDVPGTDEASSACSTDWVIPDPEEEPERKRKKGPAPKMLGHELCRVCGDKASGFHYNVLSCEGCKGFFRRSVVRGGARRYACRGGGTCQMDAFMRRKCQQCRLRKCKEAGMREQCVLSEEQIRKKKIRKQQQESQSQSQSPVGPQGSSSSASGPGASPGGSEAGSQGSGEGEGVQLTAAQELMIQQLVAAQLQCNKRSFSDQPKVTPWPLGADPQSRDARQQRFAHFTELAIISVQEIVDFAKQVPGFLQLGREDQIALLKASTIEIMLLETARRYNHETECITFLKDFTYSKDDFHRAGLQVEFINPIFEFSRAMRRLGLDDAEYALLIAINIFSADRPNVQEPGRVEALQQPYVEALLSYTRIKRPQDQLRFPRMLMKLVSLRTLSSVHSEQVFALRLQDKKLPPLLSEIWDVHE

Vero [4] = assay: host cell cytotoxicity of antiviral hits, dose response, cytotoxicity control for West Nile virus antiviral project, secondary assay (AID 1650); assay type: functional; settings: Chlorocebus sabaeus
Protein Tat = molecular target: T2, Protein Tat (Human immunodeficiency virus type 1 group M subtype B (isolate HXB2)(HIV-1), UniProt P04608); assay type: functional;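 further: tat binding to TAR RNA read out by fluorescence polarization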
T2 sequence (P04608 whole entry): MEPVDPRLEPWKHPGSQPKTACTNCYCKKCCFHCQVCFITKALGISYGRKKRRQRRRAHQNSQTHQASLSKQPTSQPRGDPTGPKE

[5] = P. falciparum Dd2 growth inhibitors, dose response, SYBR Green, cherry-picked samples (AID 1159567); assay type: functional, cell-based
[6] = HepG2 cell cytotoxicity, dose response, cytotoxicity control, cherry-picked samples (AID 1159577); assay type: functional, cell-based
[7] = P. falciparum 3D7-ScDHODH growth inhibitors, dose response, SYBR Green, dry powder samples (AID 1159570); assay type: functional, cell-based;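 further: parasite growth measured after 72 hours of compound exposure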
[8] = HepG2 cell cytotoxicity, dose response, cytotoxicity control, plate reader, dry powder samples (AID 1159569); assay type: functional, cell-based;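 further: inhibitor potency with signal falling toward the positive control level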
[9] = P. falciparum Dd2 growth inhibitors, dose response, SYBR Green, dry powder samples (AID 1159566); assay type: functional, cell-based;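 further: potency for growth inhibition with lower SYBR green DNA signal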
[10] = P. falciparum ATP4 D1247Y mutant growth inhibitors, dose response, NITD609-resistant line, SYBR Green, dry powder (AID 1159571); assay type: functional, cell-based;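 further: parasites synchronized at ring stage by sorbitol before testing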
Fatty acid synthase [11] = molecular target: T3, Fatty acid synthase (Homo sapiens, UniProt P49327); assay: FAS thioesterase domain inhibitors, dose response, biochemical, endpoint fluorescence intensity, uHTS hits (AID 624327); assay type: functional;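 further: fluorescence from hydrolysis of an O-methyl fluorescein acyl ester substrate by the enzyme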
T3 sequence (P49327 whole entry, the tested form may be a part): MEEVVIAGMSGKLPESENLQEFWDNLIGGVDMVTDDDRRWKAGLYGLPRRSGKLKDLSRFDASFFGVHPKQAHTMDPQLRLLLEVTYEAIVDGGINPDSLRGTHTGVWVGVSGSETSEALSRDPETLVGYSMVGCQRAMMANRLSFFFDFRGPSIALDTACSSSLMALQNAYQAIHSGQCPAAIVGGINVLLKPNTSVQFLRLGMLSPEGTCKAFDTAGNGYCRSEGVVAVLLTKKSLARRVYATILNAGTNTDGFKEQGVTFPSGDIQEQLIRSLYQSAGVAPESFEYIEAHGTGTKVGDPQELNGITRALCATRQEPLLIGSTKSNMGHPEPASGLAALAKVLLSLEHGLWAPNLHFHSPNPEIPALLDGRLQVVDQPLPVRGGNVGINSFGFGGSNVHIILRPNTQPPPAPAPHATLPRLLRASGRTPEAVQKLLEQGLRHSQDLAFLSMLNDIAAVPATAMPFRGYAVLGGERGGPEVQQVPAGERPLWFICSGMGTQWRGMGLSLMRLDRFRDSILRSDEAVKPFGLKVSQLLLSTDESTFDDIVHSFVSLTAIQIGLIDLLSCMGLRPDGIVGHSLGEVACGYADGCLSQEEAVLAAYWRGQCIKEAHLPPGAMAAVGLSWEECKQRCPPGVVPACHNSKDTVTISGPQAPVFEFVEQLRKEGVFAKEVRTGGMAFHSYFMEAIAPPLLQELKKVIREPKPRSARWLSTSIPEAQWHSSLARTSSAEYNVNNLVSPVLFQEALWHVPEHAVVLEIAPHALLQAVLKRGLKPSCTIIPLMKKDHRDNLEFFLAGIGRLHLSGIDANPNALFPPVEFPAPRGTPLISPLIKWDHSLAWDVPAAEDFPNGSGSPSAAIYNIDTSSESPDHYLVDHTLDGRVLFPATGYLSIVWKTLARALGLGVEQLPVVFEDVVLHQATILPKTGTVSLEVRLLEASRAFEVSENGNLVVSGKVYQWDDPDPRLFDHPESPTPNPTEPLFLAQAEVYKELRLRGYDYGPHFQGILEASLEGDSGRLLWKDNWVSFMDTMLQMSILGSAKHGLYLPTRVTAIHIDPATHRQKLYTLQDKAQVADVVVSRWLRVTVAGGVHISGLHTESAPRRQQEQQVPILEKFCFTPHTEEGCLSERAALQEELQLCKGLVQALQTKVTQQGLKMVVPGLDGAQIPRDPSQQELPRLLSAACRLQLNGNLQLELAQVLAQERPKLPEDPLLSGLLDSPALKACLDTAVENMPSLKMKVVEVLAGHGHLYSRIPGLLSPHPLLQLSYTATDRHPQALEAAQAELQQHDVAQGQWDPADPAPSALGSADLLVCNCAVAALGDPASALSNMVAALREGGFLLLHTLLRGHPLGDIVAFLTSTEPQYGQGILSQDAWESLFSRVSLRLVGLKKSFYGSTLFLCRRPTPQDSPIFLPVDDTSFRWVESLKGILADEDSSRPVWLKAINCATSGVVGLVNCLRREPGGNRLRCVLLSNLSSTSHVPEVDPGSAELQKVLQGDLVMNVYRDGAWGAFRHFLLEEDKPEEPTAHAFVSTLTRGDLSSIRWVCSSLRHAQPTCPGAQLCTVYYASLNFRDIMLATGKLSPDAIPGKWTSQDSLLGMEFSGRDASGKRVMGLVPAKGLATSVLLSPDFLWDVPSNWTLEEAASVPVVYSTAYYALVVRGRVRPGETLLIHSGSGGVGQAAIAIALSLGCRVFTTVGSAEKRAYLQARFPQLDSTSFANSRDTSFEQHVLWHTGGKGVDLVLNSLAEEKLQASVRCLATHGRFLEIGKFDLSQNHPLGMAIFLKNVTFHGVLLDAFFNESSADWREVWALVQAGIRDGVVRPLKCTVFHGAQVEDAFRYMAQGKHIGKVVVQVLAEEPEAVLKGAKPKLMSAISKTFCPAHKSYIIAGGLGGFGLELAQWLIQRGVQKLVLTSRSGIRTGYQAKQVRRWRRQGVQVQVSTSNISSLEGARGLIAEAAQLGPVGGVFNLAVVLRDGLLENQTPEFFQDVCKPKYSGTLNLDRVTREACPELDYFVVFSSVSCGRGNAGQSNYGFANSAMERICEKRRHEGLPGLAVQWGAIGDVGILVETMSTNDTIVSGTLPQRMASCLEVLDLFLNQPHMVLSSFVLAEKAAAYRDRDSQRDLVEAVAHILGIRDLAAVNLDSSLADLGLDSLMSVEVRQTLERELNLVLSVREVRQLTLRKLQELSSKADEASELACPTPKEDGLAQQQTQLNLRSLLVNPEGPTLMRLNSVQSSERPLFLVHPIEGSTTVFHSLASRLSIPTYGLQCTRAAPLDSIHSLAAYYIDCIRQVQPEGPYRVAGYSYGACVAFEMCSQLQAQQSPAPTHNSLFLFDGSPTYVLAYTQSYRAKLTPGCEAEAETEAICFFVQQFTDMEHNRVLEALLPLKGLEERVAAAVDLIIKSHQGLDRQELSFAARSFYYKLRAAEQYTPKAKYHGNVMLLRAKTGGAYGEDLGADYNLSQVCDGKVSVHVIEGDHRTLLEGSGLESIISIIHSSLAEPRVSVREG

Fatty acid synthase [12] = molecular target: T3, Fatty acid synthase; assay: FAS thioesterase domain inhibitors, dose response, biochemical, kinetic fluorescence intensity (AID 624326); assay type: functional;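 further: rate of fluorescence rise from hydrolysis of a fluorogenic O-methyl fluorescein ester substrate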
INS1 = assay: beta cell apoptosis inhibitors, cytokine rescue, dose response, luminescence, retest (AID 449756); assay type: functional, cell-based; settings: Rattus norvegicus;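 further: cell death triggered by IL-1 beta plus TNF-alpha plus IFN-gamma mixture; protective hits raise ATP signal compared with cytokine alone wells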
[13] = THP-1 cell cytotoxicity, dose response, cytotoxicity control for Vif-APOBEC3G degradation inhibitor project, THP-1 cells (AID 1117359); assay type: functional; settings: Human immunodeficiency virus 1, THP-1
[14] = inhibitors of intracellular T. cruzi replication, confirmation, NIH3T3 host cells, beta-gal luminescence (AID 2044); assay type: functional, cell-based;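 further: intracellular parasites grown in NIH/3T3 mouse fibroblasts as host cells; luminescent beta-galactosidase reporter signal from transgenic T. cruzi replicating inside host cells; inhibitors lower the luminescence signal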
[15] = cytotoxicity toward NIH3T3 fibroblasts, dose response, counter-screen, cell-based, ATP luminescence, mouse fibroblasts (AID 2010); assay type: functional;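 further: cells exposed to compound for about 90 hours before reading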
[16] = molecular target: Luciferin 4-monooxygenase (Photinus pyralis, UniProt P08659); assay: firefly luciferase enzyme inhibitors, dose response, biochemical, luminescence (AID 1891)
Sequence of Luciferin 4-monooxygenase (P08659 whole entry): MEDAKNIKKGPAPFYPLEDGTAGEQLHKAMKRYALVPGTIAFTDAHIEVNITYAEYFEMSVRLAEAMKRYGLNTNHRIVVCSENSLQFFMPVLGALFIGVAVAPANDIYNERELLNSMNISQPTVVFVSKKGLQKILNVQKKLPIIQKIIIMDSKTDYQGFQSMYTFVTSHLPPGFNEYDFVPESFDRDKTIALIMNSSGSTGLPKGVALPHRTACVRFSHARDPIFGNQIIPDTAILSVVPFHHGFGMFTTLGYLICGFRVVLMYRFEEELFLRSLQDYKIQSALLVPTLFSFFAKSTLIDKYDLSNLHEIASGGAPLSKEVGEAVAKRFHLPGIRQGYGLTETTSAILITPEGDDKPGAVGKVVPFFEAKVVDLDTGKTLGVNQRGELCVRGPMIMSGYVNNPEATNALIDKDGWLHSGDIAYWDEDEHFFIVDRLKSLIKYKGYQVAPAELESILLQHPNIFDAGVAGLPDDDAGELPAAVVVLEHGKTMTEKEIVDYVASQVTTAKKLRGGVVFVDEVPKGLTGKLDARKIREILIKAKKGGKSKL

[17] = Luminescence Cell-Based Dose Confirmation HTS to Identify Inhibitors of Platelet Dense Granule Release. [Related pubchem assays: 1663 (Primary HTS), 1678 (Summary of Project)]; assay type: functional
Galanin receptor type 3 = molecular target: T4, Galanin receptor type 3 (Homo sapiens, UniProt O60755); assay: Fluorescence-based cell-based primary high throughput dose response assay to identify antagonists of the Galanin Receptor 3 (GalR3).; assay type: functional
T4 sequence (O60755 whole entry): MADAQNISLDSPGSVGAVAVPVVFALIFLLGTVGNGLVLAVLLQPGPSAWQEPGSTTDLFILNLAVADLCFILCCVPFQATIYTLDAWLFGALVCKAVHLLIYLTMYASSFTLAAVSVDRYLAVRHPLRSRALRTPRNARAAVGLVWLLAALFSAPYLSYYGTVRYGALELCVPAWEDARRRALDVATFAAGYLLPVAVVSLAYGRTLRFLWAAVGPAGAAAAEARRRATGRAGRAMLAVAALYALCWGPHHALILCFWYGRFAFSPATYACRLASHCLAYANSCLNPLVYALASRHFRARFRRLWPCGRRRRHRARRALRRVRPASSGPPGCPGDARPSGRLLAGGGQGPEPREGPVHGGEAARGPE

cells = assay type: functional, cell-based; settings: HEK-CNG
[18] = Luminescence Cell-Based Dose Response HTS to Identify Inhibitors of 5'UTR Stem-Loop Driven Prion Protein mRNA Translation in H4 Neuroglioblastoma Cells. [Related pubchem assays: 1827 (Project Summary), 1813 (Primary HTS)]; assay type: functional
[19] = inhibitors of SNCA 5'UTR-driven reporter translation, confirmation, H4 neuroglioma cells, luminescence (AID 1988); assay type: functional, cell-based
Paired box protein Pax-8 = Paired box protein Pax-8 (Homo sapiens, UniProt Q06710); assay: inhibitors of PAX8-driven TPO luciferase reporter, dose response, RMG-I cells, cherry-pick (AID 687027); assay type: functional, cell-based;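 further: luciferase reporter driven by Pax8 target thyroperoxidase promoter measured by SteadyGlo luminescence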
Sequence of Paired box protein Pax-8 (Q06710 whole entry): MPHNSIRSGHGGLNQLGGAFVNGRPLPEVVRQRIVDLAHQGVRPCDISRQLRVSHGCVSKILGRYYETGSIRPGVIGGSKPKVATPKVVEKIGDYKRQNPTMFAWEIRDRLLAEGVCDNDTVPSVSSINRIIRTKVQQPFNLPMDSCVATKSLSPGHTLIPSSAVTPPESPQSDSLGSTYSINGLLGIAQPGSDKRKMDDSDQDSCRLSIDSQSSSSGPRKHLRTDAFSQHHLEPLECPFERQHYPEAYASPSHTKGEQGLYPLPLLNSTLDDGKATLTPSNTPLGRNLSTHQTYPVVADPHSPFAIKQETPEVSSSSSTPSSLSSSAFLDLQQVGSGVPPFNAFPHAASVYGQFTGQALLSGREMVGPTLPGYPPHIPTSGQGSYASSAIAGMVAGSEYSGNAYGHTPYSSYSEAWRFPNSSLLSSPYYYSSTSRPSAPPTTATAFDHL

[20] = A549 cell cytotoxicity, dose response, cytotoxicity control, plate reader, cherry-pick, antagonist series (AID 743412); assay type: functional, cell-based
[21] = HepG2 cell cytotoxicity, dose response, cytotoxicity control, plate reader, cherry-pick, antagonist series (AID 743416); assay type: functional, cell-based
[22] = LGR2 antagonists, dose response, cell-based, HEK293, CRE-luciferase reporter, cherry pick, set 2 (AID 743343); assay type: functional;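 further: transfected cells were stimulated with diluted bursicon conditioned medium after compound addition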
[23] = MC4R antagonists, dose response, counter-screen for LGR2 antagonist project, cell-based, plate reader, cherry pick (AID 743444); assay type: functional;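 further: transfected HEK 293 cells stimulated with alpha-MSH peptide; potency of inhibitors of the alpha-MSH evoked signal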
[24] = cytotoxicity in OVCAR8 ovarian cancer cells, dose response, PAX8 project, cell-based, plate reader, dry powder samples (AID 743197); assay type: functional; settings: OVCAR-8
[25] = HeLa cell cytotoxicity, dose response, cytotoxicity control for MgcRacGAP inhibitor project (AID 624300); assay type: functional
[26] = molecular target: T5, Rac GTPase-activating protein 1 (Homo sapiens, UniProt Q9H0H5); assay: MgcRacGAP GTPase-activating activity inhibitors, confirmation, biochemical, ADP Hunter fluorescence, primary and confirmatory (AID 624330); assay type: functional
T5 sequence (Q9H0H5 whole entry): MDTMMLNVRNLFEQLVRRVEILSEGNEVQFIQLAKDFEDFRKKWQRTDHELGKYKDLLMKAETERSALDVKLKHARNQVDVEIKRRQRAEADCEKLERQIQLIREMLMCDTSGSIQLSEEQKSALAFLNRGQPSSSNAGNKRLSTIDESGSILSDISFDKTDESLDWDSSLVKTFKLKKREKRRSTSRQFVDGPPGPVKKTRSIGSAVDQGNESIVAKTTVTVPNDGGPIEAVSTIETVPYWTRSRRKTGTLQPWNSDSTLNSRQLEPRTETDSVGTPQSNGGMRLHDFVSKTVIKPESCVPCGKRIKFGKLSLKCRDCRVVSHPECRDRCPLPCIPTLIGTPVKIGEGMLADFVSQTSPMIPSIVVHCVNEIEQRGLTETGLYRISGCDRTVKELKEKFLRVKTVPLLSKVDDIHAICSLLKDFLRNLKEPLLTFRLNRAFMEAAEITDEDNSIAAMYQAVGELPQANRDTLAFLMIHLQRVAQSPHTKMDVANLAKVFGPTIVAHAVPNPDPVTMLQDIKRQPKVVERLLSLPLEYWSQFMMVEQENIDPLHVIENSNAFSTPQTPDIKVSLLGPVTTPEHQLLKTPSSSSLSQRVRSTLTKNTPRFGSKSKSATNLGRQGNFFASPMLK

Vero [27] = assay: cells; assay type: functional; settings: Chlorocebus sabaeus

## COc1cccc(C(=O)Oc2cc3c4c(c2)C(C)=CC(C)(C)N4C(=O)C3=O)c1
[1]
  IC50: 43.2 µM (inactive)

## CCOc1ccc(-c2noc(COC)n2)cc1OC
[2]
  IC50: > 67.5 µM (inactive)
[3]
  EC50: > 67.5 µM (inactive)

## CCc1ccc(-c2nc(CN3CCC(C(=O)N4CCN(c5ccccc5)CC4)CC3)c(C)o2)cc1
Vero [4]
  CC50: 16.3 µM (active)

## COc1ccccc1/C=C(/CC(=O)NCc1ccccc1)c1nc2ccccc2s1
Protein Tat
  IC50: > 100 µM (active)

## COc1cccc(C#Cc2ccc([C@@H]3[C@@H](CO)N(C(=O)C4CCCC4)[C@H]3C#N)cc2)c1
[5]
  AC50: 4.4 µM (active)
[6]
  AC50: > 39 µM (inactive)

## Cc1ccc(-c2ccc3c(c2)O[C@@H](CN(C)Cc2ccncc2)[C@H](C)CN([C@@H](C)CO)S3(=O)=O)cc1
[7]
  AC50: 2.23 µM (active)
[8]
  AC50: 24.4 µM (active)
[5]
  AC50: 2.73 µM (active)
[9]
  AC50: 2.2 µM (active)
[6]
  AC50: > 39 µM (inactive)
[10]
  AC50: 2.19 µM (active)

## O=C(COC(=O)c1cccc([N+](=O)[O-])c1)NCc1cccs1
Fatty acid synthase [11]
  IC50: 13.9 µM (active)
Fatty acid synthase [12]
  IC50: 18.7 µM (active)

## CCCOC(=O)/C(C(=N)NCc1ccccc1)=C(/O)OCCC
INS1
  AC50: 97 µM (active)
[13]
  CC50: > 40 µM (active)

## O=C1OC(c2ccc(F)cc2)=C/C1=C\c1ccc([N+](=O)[O-])o1
[14]
  EC50: 0.501 µM (active)
[15]
  EC50: > 60 µM (not active)
Protein Tat
  IC50: > 100 µM (active)

## CC1CC(=O)NN=C1c1ccc(N)c([N+](=O)[O-])c1 (stereo unspecified)
[16]
  EC50: > 112 µM (not active)
[17]
  EC50: < 0.088 µM (active)
Galanin receptor type 3
  IC50: 0.26 µM (active)
cells
  EC50: > 29.9 µM (inactive)

## COc1cccc(C(=O)Cn2c(=N)n(C)c3ccccc32)c1
[18]
  EC50: 17.7 µM (active)
[19]
  EC50: 6.57 µM (active)
[2]
  IC50: > 67.5 µM (inactive)
[3]
  EC50: > 67.5 µM (inactive)

## C[C@@H]1CN([C@H](C)CO)C(=O)c2c(c3ccccc3n2C)-c2ccccc2CO[C@@H]1CN(C)S(=O)(=O)c1ccc(C(F)(F)F)cc1
Paired box protein Pax-8
  AC50: 5.24 µM (active)
[20]
  AC50: 19.4 µM (active)
[21]
  AC50: 17.7 µM (active)
[22]
  AC50: 25.9 µM (active)
[23]
  AC50: 35.3 µM (active)
[24]
  AC50: > 70 µM (inactive)
[7]
  AC50: 3.33 µM (active)
[8]
  AC50: 15.1 µM (active)
[5]
  AC50: 2.41 µM (active)
[9]
  AC50: 1.76 µM (active)
[6]
  AC50: > 42 µM (inactive)
[10]
  AC50: 2.62 µM (active)

## COc1cc(/C=N/NC(=O)c2cccc(NC(=O)c3ccccc3C)c2)ccc1O
[25]
  CC50: 100 µM (active)
[26]
  IC50: 35.9 µM (active)

## FC(F)(F)c1ccc(Oc2ccc(Cl)cc2Br)nc1
[2]
  IC50: > 67.5 µM (inactive)
[3]
  EC50: > 67.5 µM (inactive)

## N=C(N)SCc1ccc(Cl)c2ccccc12
[1]
  IC50: > 122 µM (inactive)

## N=C(N)N/N=C/c1ccc(Cl)cc1Cl
[14]
  EC50: 0.204 µM (active)
[15]
  EC50: 19.4 µM (active)
Vero [27]
  CC50: 18.9 µM (active)
[25]
  CC50: 66.3 µM (active)

## COc1cc2c(cc1NC(=O)C(Cl)Cl)-c1ccc(NC(=O)C(Cl)Cl)cc1C2
[25]
  CC50: 10.3 µM (active)
[26]
  IC50: 58.4 µM (active)

## Cc1nc2ccc([N+](=O)[O-])cc2c(=O)n1Cc1ccc(Cl)cc1
Fatty acid synthase [11]
  IC50: 0.906 µM (active)
Fatty acid synthase [12]
  IC50: 1.05 µM (active)

## CCOC(=O)C1CCN(C(=O)COc2ccc([N+](=O)[O-])cc2)CC1
Fatty acid synthase [11]
  IC50: 9.85 µM (active)
Fatty acid synthase [12]
  IC50: 9.05 µM (active)

## O=S(=O)(Nc1ccc2[nH]c(O)nc2c1)c1ccc(F)c(Cl)c1
[13]
  CC50: > 40 µM (active)
